Assay results reported in US20150328280A1, “ALISPORIVR FOR TREATMENT OF HEPATITIS C VIRUS INFECTION” (priority 2011, published 2015).

Legend:
[1] = boceprevir recipients; cited from earlier work
HCV genotype 1 [2] = experiment: study of alisporivir in HCV Genotype 1 non responder patients, decline in HCV RNA; assay type: in vivo, human; settings: first week of treatment, with peg-IFNα2a plus RBV
Experimental: The efficacy of the therapy regimen may be monitored using standard protocols. Treatment may be followed by determinations of HCV in serum and measurement of serum ALT (alanine-aminotransferase) levels. For example, the patients may be assessed for the presence of HCV RNA in their plasma. HCV RNA (IU/mL) can be measured at regular intervals during the treatment, e.g., at Day 1 (pre-dose and 4, 8, and 12 hours post-dose) and pre-dose at Day 2, Day 3, Day 8, Day 15, Day 29, and at Week 12, Week 24, Week 36, Week 48, Week 72 (when applicable), and at follow up. In addition, the HCV strains in the patient can be sequenced and assessed for identification of mutations selecting for resistance.
In addition, study of the use of alisporivir in HCV Genotype 1 non responder patients addressed the utility of a 400 mg BID dose regimen versus the same total daily dose given once daily (800 mg QD) during the first week of treatment, both with peg-IFNα2a plus RBV, and the possible relationships between Cmax, AUC, or Cmin and antiviral effect at the end of that treatment period. In this hard to treat patient population, the 400 mg BID dose provided greater decline in HCV RNA from baseline (−1.41 log10 IU/m1) than the 800 mg QD dose (−0.70 log10 IU/ml). […]

HCV genotype 1 [3] = experiment: phase 2 study of genotype 1 treatment-naive patients, sustained virologic response; assay type: in vivo, human; settings: alisporivir 600 mg BID for one week, then 600 mg QD, 48 week treatment, combined with peg-IFNa2a
Description: The virological response parameters are: rapid virologic response at treatment week 4 (RVR 4) defined by undetectable serum HCV-RNA at treatment week 4; early virological response (EVR), defined by at least 2 log10 IU/mL reduction in HCV-RNA compared to baseline (partial EVR) or undetectable serum HCV-RNA (complete EVR) at treatment week 12; sustained virological response (SVR24), defined as absence of HCV-RNA from serum by a sensitive Polymerase Chain Reaction (PCR) assay 24 weeks following end of therapy or the HCV RNA is undetectable (by LOD) 24 weeks after end of treatment; End of Treatment Response (ETR): HCV RNA undetectable (by LOD) at treatment end (completed or prematurely discontinued).

**Q.** For `CC(C)(C)NC(=O)N[C@H](C(=O)N1C[C@H]2[C@@H]([C@H]1C(=O)NC(CC1CCC1)C(=O)C(N)=O)C2(C)C)C(C)(C)C` (stereo partly shown) [boceprevir], which “treatment-emergent anemia versus pegylated interferon and ribavirin recipients” value [1] is on record?
**A.** The value was “significantly higher”.

**Q.** Which “decline in HCV RNA from baseline” value (HCV genotype 1 [2]; 400 mg BID) does the source give for `C/C=C/C[C@@H](C)[C@@H](O)[C@H]1C(=O)N[C@@H](CC)C(=O)N(C)[C@H](C)C(=O)N(CC)[C@@H](C(C)C)C(=O)N[C@@H](C(C)C)C(=O)N(C)[C@@H](CC(C)C)C(=O)N[C@@H](C)C(=O)N[C@H](C)C(=O)N(C)[C@@H](CC(C)C)C(=O)N(C)[C@@H](CC(C)C)C(=O)N(C)[C@@H](C(C)C)C(=O)N1C` [alisporivir, Alisporivir] here?
**A.** The value was −1.41 log10 IU/m1.

**Q.** And the “decline in HCV RNA from baseline” value (HCV genotype 1 [2]; 800 mg QD)?
**A.** Its value is −0.70 log10 IU/ml.

**Q.** What about the “rates of achievement of sustained virologic response (SVR) versus peg-IFNα2a” value (HCV genotype 1 [3]) of the same compound?
**A.** The value was “superior”.
